Data published in patent publication US20240174690A1, “ANNULATED 2-AMINO-3-CYANO THIOPHENES AND DERIVATIVES FOR THE TREATMENT OF CANCER” (BOEHRINGER INGELHEIM INTERNATIONAL GMBH, priority 2021, published 2024).

System: Caco-2 cell monolayers
Assay: Caco-2 assay (permeability PappAB, PappBA, efflux ratio)
Assay type: in vitro ADME
Conditions: 10 μM test compound, pH 7.4
Method in brief: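 Bidirectional permeability (apical-to-basolateral and reverse) through polarized Caco-2 monolayers, BSA 0.25% on each side, 37 °C. Donor and receiver sampled at 0-90 min after 25-30 min preincubation, analysed by HPLC/MS/MS. Apparent permeabilities derived from transfer rate normalised to area and t=0 donor concentration; ER taken as PappBA over PappAB.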

## C[C@H](Oc1cc(-n2ccc(C(=O)N[C@H]3CCOC3)n2)nc(-c2noc3c2CCC[C@@]32CCCc3sc(N)c(C#N)c32)n1)[C@@H]1CCCN1C [II-193]
Apical to basolateral
  Caco PappAB: 3.7 ×10⁻⁶ cm/s
Efflux ratio PappBA/PappAB
  Caco ER: 8.1
